Consider 1 molecule from patent US20220380385A1, “PYRIMIDINE FIVE-MEMBERED NITROGEN HETEROCYCLIC DERIVATIVE, PREPARATION METHOD THEREOF AND PHARMACEUTICAL USE THEREOF” (TUOJIE BIOTECH(SHANGHAI) CO., LTD., priority 2019, published 2022).

Data set [1] deals with T1, CYP1A2 (Homo sapiens, UniProt P05177).
T1 construct: Mixed human liver microsomes from 150 donors; tissue Corning 452117; host or cells: pooled human liver microsomes (150 donors)
T1 sequence (P05177 1-516): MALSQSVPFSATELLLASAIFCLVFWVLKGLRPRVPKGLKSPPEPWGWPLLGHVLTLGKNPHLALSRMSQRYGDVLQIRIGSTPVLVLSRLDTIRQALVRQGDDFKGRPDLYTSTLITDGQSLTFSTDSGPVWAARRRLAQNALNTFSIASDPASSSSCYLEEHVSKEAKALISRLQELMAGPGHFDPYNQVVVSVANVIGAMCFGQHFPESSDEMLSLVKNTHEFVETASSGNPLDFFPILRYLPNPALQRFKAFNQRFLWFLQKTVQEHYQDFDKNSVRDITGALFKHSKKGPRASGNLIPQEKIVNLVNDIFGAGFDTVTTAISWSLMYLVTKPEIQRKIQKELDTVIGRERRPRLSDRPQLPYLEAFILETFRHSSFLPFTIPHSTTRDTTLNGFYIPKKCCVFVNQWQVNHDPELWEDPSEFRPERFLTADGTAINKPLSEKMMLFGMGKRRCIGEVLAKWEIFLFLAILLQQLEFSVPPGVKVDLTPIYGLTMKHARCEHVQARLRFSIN
Kind of data set: CYP inhibition in mixed human liver microsomes, CYP1A2 (phenacetin). The class given is in vitro ADME. The method, then: (§1) Mixed human liver microsomes from 150 donors (purchased from Corning, catalog number 452117) were used to evaluate the representative substrate metabolic responses of the five main human CYP subtypes (CYP1A2, CYP2C9, CYP2C19, CYP2D6 and CYP3A4/5). The influence of different concentrations of test compounds on the metabolic responses of phenacetin (CYP1A2), diclofenac sodium (CYP2C9), S-mephenytoin (CYP2C19), bufurolol hydrochloride (2D6) and midazolam (CYP3A4/5) was determined by liquid chromatography tandem mass spectrometry (LC/MS/MS).
(§2) 200 μL of the reaction system (100 mmol/L phosphate buffer, pH 7.4, containing 0.3% DMSO, 0.6% acetonitrile and 0.1% methanol by volume respectively) with 30 µM phenacetin, 10 μM diclofenac sodium, 35 μM S-mephenytoin, 5 μM bufurolol hydrochloride, 3 μM midazolam, 1 mM NADPH, test compound (at a concentration of 0.1, 0.3, 1, 3, 10 and 30 μmol/L respectively) or positive compound or blank control and mixed human liver microsomes (0.2 mg/mL) was incubated at 37° C. for 5 minutes. […]
(§3) The peak area was calculated based on the chromatograms. The residual activity ratio (%) was calculated using the following equation: […]
(§4) The CYP median inhibitory concentration (IC50) was calculated by Excel XLfit 5.3.1.3.
On the technique in general: Liver microsomes are vesicles of endoplasmic reticulum, rich in cytochrome P450 enzymes.

The target of data set [2] is T2, CYP2D6 (Homo sapiens, UniProt P10635).
T2 construct: Mixed human liver microsomes from 150 donors; tissue Corning 452117; host or cells: pooled human liver microsomes (150 donors)
Kind of data set: CYP inhibition in mixed human liver microsomes, CYP2D6 (bufurolol hydrochloride). In kind it is in vitro ADME. The method, then:
as §1, §2, §3, §4

Data set [3] in a line: In vitro metabolic stability in rat liver microsomes. In kind it is in vitro ADME. To be noted: rat liver microsomes (male Wistar Han), NADPH, 37° C.; read-out: Intrinsic clearance rate. How it is done: The concentration of the compound in the reaction system was determined by LC/MS/MS, so as to calculate the intrinsic clearance rate of the test compound and to evaluate the in vitro metabolic stability in rat liver microsomes.
222.5 μL, 1.1236 mg/mL of a mixed solution of rat liver microsomes (male Wistar Han strain, purchased from Corning, catalog number 452511) and 25 μL, 10 mM of NADPH were added into the incubation plate. The mixture was mixed by vortexing for 10 seconds. The plate was incubated in a water bath at 37° C. for 8 minutes. 2.5 μL, 100 μM of the test compound or positive control was added to the incubation plate to start the reaction. The mixture was mixed by vortexing for 12 seconds, and incubated in a water bath at 37° C. The reaction was stopped by transferring 20 μL of the incubation system to a stop plate containing 100 μL of cold stop solution at 0.5, 5, 10, 15, 20 and 30 minutes. The mixture was mixed by vortexing for 2 minutes. The stop plate was centrifuged at 4000 rpm for 20 minutes, then left to stand at 4° C. for 30 minutes, and then centrifuged at 4000 rpm for 20 minutes. 40 μL of the supernatant of each compound was transferred to a 96-well injection plate, and 160 μL of pure water was added to dilute the samples.
The obtained samples were quantified by ion chromatogram, and the residual rate was calculated according to the peak area of the test compounds or positive control. The slope k was determined by linear regression of the natural logarithm of the residual rate to the incubation time by using Microsoft Excel.
The in vitro half-life (in vitro t1/2) was calculated from the slope: in vitro t1/2=−(0.693/k)
The following equation was used to convert in vitro half-life into intrinsic clearance rate (in vitro CLint, μL/min/mg protein):
in vitro CLint=(0.693/t1/2)×(incubation volume (L)/protein amount (mg))

The nature of data set [4]: In vivo pharmacokinetics in cynomolgus monkeys (gavage). To be noted: male, plasma, po, 5 mg/kg, original drug, cynomolgus monkey, 5 mpk. How it is done:
Cynomolgus monkeys were used as the test animals. The plasma drug concentration at different times after the cynomolgus monkeys were given the compounds of the invention by gavage was determined by using the LC/MS/MS method. The in vivo pharmacokinetic behavior of the compounds of the present invention in cynomolgus monkeys was studied, and pharmacokinetic characteristics thereof were evaluated.
Test animals: 3 healthy, 2-5 years old male cynomolgus monkeys in each group;
Administration by gavage: a certain amount of drug was weighed, and 0.5% by mass of hypromellose, 0.1% by volume of Tween 80 and 99.4% by volume of water were added thereto to formulate a white suspension at 1 mg/mL.
The cynomolgus monkeys were fasted overnight, and then the drug was administered by gavage at a dose of 5 mg/kg.
Cynomolgus monkeys were administered the compounds of the present invention by gavage. At 0.25, 0.5, 1, 2, 4, 8 and 24 hours after administration, 0.2 mL of blood was collected from the peripheral vein and placed in a test tube containing EDTA-K2. The tube was centrifuged at 2 to 8° C., 2000 rpm for 10 minutes to separate the plasma, which was stored at −75° C.
Determination of the content of the test compounds in cynomolgus monkey plasma after administration of different concentrations of drugs by gavage: 55 μL of cynomolgus monkey plasma at each time after administration was taken, and 200 μL of a solution of the internal standard verapamil or dexamethasone in acetonitrile. The mixture was mixed by vortexing for 30 seconds, centrifuged at 4° C., 3900 rpm for 15 minutes. The supernatant of the plasma samples were collected and diluted three times with water, and 15 μL was taken for LC/MS/MS analysis.

T2 sequence (P10635 whole entry): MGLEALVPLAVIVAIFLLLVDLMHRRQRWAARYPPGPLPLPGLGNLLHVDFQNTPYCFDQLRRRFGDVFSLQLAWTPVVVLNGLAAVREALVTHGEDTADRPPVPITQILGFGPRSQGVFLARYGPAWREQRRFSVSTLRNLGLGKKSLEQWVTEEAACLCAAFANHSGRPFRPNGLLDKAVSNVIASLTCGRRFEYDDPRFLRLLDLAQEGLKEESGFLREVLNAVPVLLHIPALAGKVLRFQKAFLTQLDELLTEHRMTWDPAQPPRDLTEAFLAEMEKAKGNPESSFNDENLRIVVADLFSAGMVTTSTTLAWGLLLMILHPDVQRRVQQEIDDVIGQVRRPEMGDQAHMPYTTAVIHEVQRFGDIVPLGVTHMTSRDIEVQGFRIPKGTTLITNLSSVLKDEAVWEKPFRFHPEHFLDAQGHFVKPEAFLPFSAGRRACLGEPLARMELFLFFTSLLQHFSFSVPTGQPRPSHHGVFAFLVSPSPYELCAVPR

For the molecule `[2H]C([2H])([2H])Nc1nccc(Sc2c(C)nc(N3CCC4(CC3)Cc3ncccc3[C@H]4N)n3ccnc23)c1Cl` [Example 3, (S)-1′-(8-((3-Chloro-2-((methyl-d3)amino)pyridin-4-yl)thio)-7-methylimidazo[1,2-c]pyrimidin-5-yl)-5,7-dihydrospiro[cyclopenta[b]pyridine-6,4′-piperidin]-5-amine], the values for the IC50 in data set [1] and in data set [2] were 14.7 µM and > 20 µM, respectively. The microsomal CLint at 1 µM in data set [3] is < 3 µL/min/mg. In data set [4] (read-out: Area under curve AUC), the area under the curve (AUC) (as a rule, concentration integrated over time) stood at 72.3 µg·h/mL. The Cmax (commonly the peak of the concentration-time curve) in data set [4] (read-out: Maximum blood conc. Cmax) was found to be 12.2 µg/mL.
